Measured values taken from ChEMBL document CHEMBL1201862, “PubChem BioAssay data set” (2004).
The source made the active and inactive calls.

What was measured:
[1] = biological target: Mitogen-activated protein kinase 10 (Homo sapiens, UniProt P53779); assay: Dose response biochemical screening assay for inhibitors of c-Jun N-Terminal Kinase 3 (JNK3). [Related pubchem assays: 746 ]
[2] = A Cell Based Secondary Assay To Explore Cytotoxicity of Compounds that Sensitize Mycobacterium Tuberculosis to Beta-Lactam Antibiotics.; type: functional
cells [3] = type: functional, cell-based
cells [4] = type: functional, cell-based; remark: listed apart in the source
Cytochrome P450 2C19 = Cytochrome P450 2C19 (Homo sapiens, UniProt P33261); assay: qHTS Assay for Inhibitors and Substrates of Cytochrome P450 2C19. [Related pubchem assays: 410 ]; type: ADME; settings: read-out: Potency
Chain of Cytochrome P450 2C19 (P33261 whole entry): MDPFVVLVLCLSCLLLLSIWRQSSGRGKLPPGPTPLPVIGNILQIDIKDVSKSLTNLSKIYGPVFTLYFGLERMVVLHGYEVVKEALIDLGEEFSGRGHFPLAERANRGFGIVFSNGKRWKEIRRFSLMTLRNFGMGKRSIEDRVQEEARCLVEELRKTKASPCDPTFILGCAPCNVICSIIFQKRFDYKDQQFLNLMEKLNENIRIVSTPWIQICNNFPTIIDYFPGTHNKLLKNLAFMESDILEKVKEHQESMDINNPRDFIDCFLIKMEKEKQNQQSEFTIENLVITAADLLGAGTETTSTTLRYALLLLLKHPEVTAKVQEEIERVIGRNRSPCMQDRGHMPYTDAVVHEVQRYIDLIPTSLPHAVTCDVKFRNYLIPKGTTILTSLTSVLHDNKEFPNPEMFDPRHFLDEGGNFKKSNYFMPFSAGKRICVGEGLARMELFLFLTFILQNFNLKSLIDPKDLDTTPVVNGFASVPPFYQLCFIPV

HeLa = assay: viability loss in HeLa cells – cell-based, 24 h, cherry-picked samples, cytotoxicity control, dose response (AID 504726); type: functional; settings: Homo sapiens;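 also: potency for cytotoxicity as loss of luminescence signal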
[5] = viability of uninfected HEp-2 cells – cell-based, HTS, cytotoxicity control for RSV inhibitor project, dose response (AID 2410); type: functional; settings: human respiratory syncytial virus
cells [6] = assay: cells
[7] = NIH3T3 cell viability loss – ATP luminescence, mouse fibroblasts, counter-screen, dose response (AID 2010); type: functional, cell-based;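 also: cells exposed to compound for about 90 hours before reading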
[8] = Trypanosoma cruzi growth suppression in host cells – NIH3T3 host cells, beta-gal luminescence, confirmation (AID 2044); type: functional, cell-based;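 also: intracellular parasites grown in NIH/3T3 mouse fibroblasts as host cells; luminescent beta-galactosidase reporter signal from transgenic T. cruzi replicating inside host cells; inhibitors lower the luminescence signal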
[9] = biological target: T1, Dual specificity protein phosphatase 6 (Rattus norvegicus, UniProt Q64346); assay: inhibition of rat DUSP6 enzyme activity – biochemical, in vitro, primary screen (AID 425)
T1 sequence (Q64346 whole entry): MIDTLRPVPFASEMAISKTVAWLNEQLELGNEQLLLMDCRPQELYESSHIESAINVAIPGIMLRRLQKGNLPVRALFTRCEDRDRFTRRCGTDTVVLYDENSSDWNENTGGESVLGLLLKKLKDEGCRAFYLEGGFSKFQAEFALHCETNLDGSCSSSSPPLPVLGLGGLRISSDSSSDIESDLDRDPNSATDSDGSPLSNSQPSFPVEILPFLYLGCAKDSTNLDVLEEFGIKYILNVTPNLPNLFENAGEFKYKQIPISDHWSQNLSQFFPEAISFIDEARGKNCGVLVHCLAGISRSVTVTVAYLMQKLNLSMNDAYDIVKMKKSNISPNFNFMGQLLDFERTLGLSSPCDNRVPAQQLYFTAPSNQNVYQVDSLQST

cells [10] = assay: cells; remark: listed apart in the source
Vero [11] = assay: cells; type: functional, cell-based; settings: Chlorocebus sabaeus
Vero [12] = assay: cells; type: functional; settings: Chlorocebus sabaeus
Bcl-2-related protein A1 = biological target: T2, Bcl-2-related protein A1 (Mus musculus, UniProt Q07440); type: functional;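 also: confirmatory dose–response counterscreen on Bfl-1, used to check hits from a UBC13 polyubiquitin inhibitor campaign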
T2 sequence (Q07440 whole entry): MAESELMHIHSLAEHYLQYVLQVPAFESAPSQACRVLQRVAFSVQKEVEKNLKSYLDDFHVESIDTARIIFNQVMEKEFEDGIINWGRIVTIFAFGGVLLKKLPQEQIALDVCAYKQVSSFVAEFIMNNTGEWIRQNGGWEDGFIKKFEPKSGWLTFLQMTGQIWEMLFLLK

[13] = biological target: T3, Ubiquitin-conjugating enzyme E2 N (Homo sapiens, UniProt P61088); type: functional
T3 sequence (P61088 whole entry): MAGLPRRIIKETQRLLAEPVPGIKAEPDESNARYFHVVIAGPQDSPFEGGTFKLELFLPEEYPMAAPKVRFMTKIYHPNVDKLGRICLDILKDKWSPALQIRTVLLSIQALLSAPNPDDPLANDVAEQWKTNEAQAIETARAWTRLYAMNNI

[14] = biological target: T3, Ubiquitin-conjugating enzyme E2 N; type: functional; remark: listed apart in the source

Chain of Mitogen-activated protein kinase 10 (P53779 whole entry): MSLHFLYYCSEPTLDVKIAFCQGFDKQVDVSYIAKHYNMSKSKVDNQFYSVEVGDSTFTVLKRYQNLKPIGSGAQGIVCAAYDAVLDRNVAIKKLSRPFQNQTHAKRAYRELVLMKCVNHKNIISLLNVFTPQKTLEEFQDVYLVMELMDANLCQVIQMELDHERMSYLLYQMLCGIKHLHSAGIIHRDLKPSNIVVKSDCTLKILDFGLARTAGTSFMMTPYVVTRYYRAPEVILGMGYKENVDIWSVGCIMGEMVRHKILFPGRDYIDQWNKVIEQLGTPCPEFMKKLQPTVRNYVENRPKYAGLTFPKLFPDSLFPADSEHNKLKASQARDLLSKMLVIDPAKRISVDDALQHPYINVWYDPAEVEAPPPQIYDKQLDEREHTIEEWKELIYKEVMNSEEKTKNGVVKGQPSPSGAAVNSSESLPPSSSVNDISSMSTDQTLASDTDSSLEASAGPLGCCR

Cc1ccc(C(=O)OCc2cc3ccccc3nc2O)cc1
IC50 [1]: > 93.1 µM (not active)

CCC(=O)NC(=S)Nc1ccc(NC(=O)c2cccc([N+](=O)[O-])c2C)cc1
CC50 [2]: > 40 µM (active)
EC50 (cells [3]): > 350 µM (not active)
EC50 (cells [4]): > 350 µM (not active)

COc1ccc(OC2C=CC(C#Cc3ccccc3)OC2CO)cc1 (stereo unspecified)
AC50 (Cytochrome P450 2C19): 3.98 µM (inconclusive)

O=C(c1cnn2c(-c3ccccc3)cc(-c3ccccc3)nc12)N1CCN(Cc2ccccc2)CC1
AC50 (HeLa): 62.6 µM (active)
CC50 [5]: 15.5 µM (active)

O=c1cc(CN2CCN(C/C=C/c3ccccc3)CC2)c2cc(O)ccc2o1
EC50 (cells [6]): 0.101 µM (active)
EC50 [7]: > 60 µM (not active)
EC50 [8]: < 0.1 µM (active)

CC(=O)[C@@H]1[C@@H]2C(=O)N(c3ccc(F)c(Cl)c3)C(=O)[C@@H]2C2c3ccccc3C=CN21 (stereo partly specified)
IC50 [9]: > 100 µM (not active)

COCCNC(=O)c1cc(-c2ccc(-c3ccccc3)cc2)nc2ccccc12
CC50 [5]: 15.2 µM (active)
IC50 (cells [10]): 4.81 µM (active)
IC50 (Vero [11]): 7.44 µM (active)
CC50 (Vero [12]): 19.2 µM (active)

CN(C)CCCN(C(=O)c1ccc(S(=O)(=O)N2CCCCCC2)cc1)c1nc2cc3c(cc2s1)OCCO3
IC50 (Bcl-2-related protein A1): > 20 µM (inactive)
IC50 [13]: 4.63 µM (active)
EC50 (cells [6]): 0.201 µM (active)
EC50 [7]: > 60 µM (not active)
IC50 [14]: 4.41 µM (active)
EC50 [8]: < 0.1 µM (active)
